Each structure is given as a SMILES string.

The nature of the first data set: method code SF-AS, from DOI: 10.1002/1520-6017(200012)89:12<1525::aid-jps3>3.0.co;2-t.
Conditions: not given
With `CCCCC(=O)NCCCCCN(O)C(=O)CCC(=O)NCCCCCN(O)C(=O)CCC(=O)NCCCCCN(O)C(C)=O`, the logP worked out at 0.88.

Turning to `CC(=O)N(O)CCCCCNC(=O)CCC(=O)N(O)CCCCCNC(=O)CCC(=O)N(O)CCCCCNC=O`, the logP is -0.1.

For `CC(=O)N(O)CCCCCNC(=O)CCC(=O)N(O)CCCCCNC(=O)CCC(=O)N(O)CCCCCNC(=O)c1ccccc1`, the logP was found to be 0.86.

In turn, `CCCC(=O)NCCCCCN(O)C(=O)CCC(=O)NCCCCCN(O)C(=O)CCC(=O)NCCCCCN(O)C(C)=O` returned a logP of 0.42.

`CC(=O)NCCCCCN(O)C(=O)CCC(=O)NCCCCCN(O)C(=O)CCC(=O)NCCCCCN(O)C(C)=O`: the logP turned out to be 0.1.

The compound `CCC(=O)NCCCCCN(O)C(=O)CCC(=O)NCCCCCN(O)C(=O)CCC(=O)NCCCCCN(O)C(C)=O` returned a logP of 0.26.

`CC(=O)N(O)CCCCCNC(=O)CCC(=O)N(O)CCCCCNC(=O)CCC(=O)N(O)CCCCCNC(=O)CCC(=O)O` yielded a logP of -0.5.

Compound `CC(=O)N(O)CCCCCNC(=O)CCC(=O)N(O)CCCCCNC(=O)CCC(=O)N(O)CCCCCNC(=O)Cc1ccccc1` returned a logP of 0.9.

Staying with this data set, now noted: pH 7.4.
Turning to `CCCCCC(=O)NCCCCCN(O)C(=O)CCC(=O)NCCCCCN(O)C(=O)CCC(=O)NCCCCCN(O)C(C)=O`, the logD is 1.1.

Regarding `CCCCCCCC(=O)NCCCCCN(O)C(=O)CCC(=O)NCCCCCN(O)C(=O)CCC(=O)NCCCCCN(O)C(C)=O`, the logD is 1.09.
